Measurements as given in US20090181981A1, “CRYSTALLINE (R)-2-(4-CYCLOPROPANESULPHONYL-PHENYL)-N-PYRAZIN-2-YL-3-(TETRAHYDROPYRAN-4-YL)-PROPIONAMIDE” (priority 2008, published 2009).
Values belong to the compound of their own block, whether it stands above or below them.

Columns and labels:
Glucokinase (GK) [1] = conditions: WO2004/072031; cited from earlier work
[2] = Hygroscopicity and storage at ambient temperature; type: physicochemical
Method: (§1) Glucokinase is important in regulation of plasma glucose levels. It is thought that GK activators increase a body's sensitivity to glucose. Consequently, GK activators are effective in the treatment of hyperglycemia, insulin resistance, and diabetes, particularly in type II diabetes. […] (WO2004/072031) However, amorphous CPTP is not suitable for pharmaceutically elegant drug formulation.
(§2) Crystalline CPTP has an onset of melting as measured by differential scanning calorimetry of 156° C., which renders it acceptable for standard industrial processes such as milling. […]

[3] = Glass transition temperature / thermal stability of the solid; type: physicochemical; conditions: as evidenced by low glass transition temperature
Description: as §1

Glucokinase (GK) [4] = target: T1, Glucokinase (GK) (Homo sapiens, UniProt P35557); conditions: WO2004/072031; cited from earlier work
T1 sequence (P35557 1-465): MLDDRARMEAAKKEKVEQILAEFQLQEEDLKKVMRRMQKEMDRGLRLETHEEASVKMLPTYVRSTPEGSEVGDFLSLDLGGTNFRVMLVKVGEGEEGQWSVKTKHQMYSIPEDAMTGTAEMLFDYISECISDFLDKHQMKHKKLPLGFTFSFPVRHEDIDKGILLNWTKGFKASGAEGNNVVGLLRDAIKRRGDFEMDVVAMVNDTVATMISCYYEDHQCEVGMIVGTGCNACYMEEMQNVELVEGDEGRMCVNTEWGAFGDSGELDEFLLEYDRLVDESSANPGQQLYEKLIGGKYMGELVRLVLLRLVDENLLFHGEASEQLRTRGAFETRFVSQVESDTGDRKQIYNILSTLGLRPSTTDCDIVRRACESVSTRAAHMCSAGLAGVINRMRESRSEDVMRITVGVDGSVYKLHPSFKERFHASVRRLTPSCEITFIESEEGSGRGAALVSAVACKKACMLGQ

[5] = pKa by photometric titration; type: physicochemical; conditions: determined by photometric titration
Description: Salt formation was also extensively investigated. However, formation of isolable CPTP salts is hampered by the low pK (pKa1=0.17, determined by photometric titration) of CPTP.

[6] = Crystalline CPTP stability summary (storage at controlled temperature and relative humidity); type: physicochemical; conditions: for Chiral Purity: chiral HPLC area percent; for Achiral Purity: total impurities by achiral HPLC
Method: as §2

[7] = 25° C. 60% relative humidity, 1 month
[8] = 25° C. 60% relative humidity, 3 months
[9] = 25° C. 60% relative humidity, Initial
[10] = 40° C. 60% relative humidity, 1 Month
[11] = 40° C. 60% relative humidity, 3 Months
[12] = 40° C. 60% relative humidity, Initial

- hygroscopicity [2]: is hygroscopic
- thermal stability [3]: limited thermal stability
Structure (SMILES): O=C(Nc1cnccn1)[C@H](CC1CCOCC1)c1ccc(S(=O)(=O)C2CC2)cc1 [Amorphous CPTP, R-2-(4-cyclopropanesulfonyl-phenyl)-N-pyrazin-2-yl-3-(tetrahydropyran-4-yl)-propionamide]
- activity in in-vivo GK assay (Glucokinase (GK) [1]): active
- activity in in-vitro GK assay (Glucokinase (GK) [4]): active

- pKa1 [5]: 0.17
Structure (SMILES): O=C(Nc1cnccn1)[C@H](CC1CCOCC1)c1ccc(S(=O)(=O)C2CC2)cc1 [CPTP, R-2-(4-cyclopropanesulfonyl-phenyl)-N-pyrazin-2-yl-3-(tetrahydropyran-4-yl)-propionamide]

- Appearance [6, 7]: White
- Assay [6, 7]: 99.9 % w/w
- Total Impurities [6, 7]: 0.18%
- Water [6, 7]: <0.10 % w/w
- Appearance [6, 8]: White
- Assay [6, 8]: 99.6 % w/w
- Total Impurities [6, 8]: 0.23%
- Water [6, 8]: <0.01 % w/w
- Appearance [6, 9]: White
- Assay [6, 9]: 100.3 % w/w
- Total Impurities [6, 9]: 0.25%
- Water [6, 9]: <0.07 % w/w
- Appearance [6, 10]: White
- Assay [6, 10]: 100.1 % w/w
- Total Impurities [6, 10]: 0.2%
- Water [6, 10]: <0.10 % w/w
- Appearance [6, 11]: White
- Assay [6, 11]: 99.3 % w/w
- Total Impurities [6, 11]: 0.25%
- Water [6, 11]: <0.01 % w/w
- Appearance [6, 12]: White
- Assay [6, 12]: 100.3 % w/w
- Total Impurities [6, 12]: 0.25%
- Water [6, 12]: <0.07 % w/w
- Chiral Purity [6, 7]: 100 % a/a
- Chiral Purity [6, 8]: 100 % a/a
- Chiral Purity [6, 9]: 100 % a/a
- Chiral Purity [6, 10]: 100 % a/a
- Chiral Purity [6, 11]: 100 % a/a
- Chiral Purity [6, 12]: 100 % a/a
- Achiral Purity [6, 7]: 0.18 % a/a
- Achiral Purity [6, 8]: 0.23 % a/a
- Achiral Purity [6, 9]: 0.25 % a/a
- Achiral Purity [6, 10]: 0.20 % a/a
- Achiral Purity [6, 11]: 0.25 % a/a
- Achiral Purity [6, 12]: 0.25 % a/a
- degradation on storage ([2]; stored at ambient temperature): minor or no degradation
- hygroscopicity / water uptake ([2]; stored at ambient temperature): remains anhydrous and is not hygroscopic
Structure (SMILES): O=C(Nc1cnccn1)[C@H](CC1CCOCC1)c1ccc(S(=O)(=O)C2CC2)cc1 [Crystalline CPTP, R-2-(4-cyclopropanesulphonyl-phenyl)-N-pyrazin-2-yl-3-(tetrahydropyran-4-yl)-propionamide]
